Assay results: ChEMBL document CHEMBL3132769, “Fragment growing to retain or alter the selectivity of anchored kinase hinge-binding fragments” (Medchemcomm, 2014)

What was measured:
[1] = target: MAP kinase-activated protein kinase 2 (Homo sapiens) (UniProt P49137); test: Inhibition of human full length MAPKAPK2 expressed in baculovirus assessed as substrate phosphorylation using fluorescence-labelled peptides as substrate at 9 uM after 90 mins by microfluidic peptide phosphorylation assay
[2] = target: Mitogen-activated protein kinase kinase kinase kinase 4 (Homo sapiens) (UniProt O95819); test: Inhibition of human HGK catalytic domain expressed in baculovirus assessed as substrate phosphorylation using fluorescence-labelled peptides as substrate at 95 uM after 90 mins by microfluidic peptide phosphorylation assay
[3] = target: T1, Serine/threonine-protein kinase D1 (Homo sapiens) (UniProt Q15139); test: Inhibition of human full length PKD1 expressed in baculovirus assessed as substrate phosphorylation using fluorescence-labelled peptides as substrate at 0.06 uM after 90 mins by microfluidic peptide phosphorylation assay
T1 sequence (whole entry): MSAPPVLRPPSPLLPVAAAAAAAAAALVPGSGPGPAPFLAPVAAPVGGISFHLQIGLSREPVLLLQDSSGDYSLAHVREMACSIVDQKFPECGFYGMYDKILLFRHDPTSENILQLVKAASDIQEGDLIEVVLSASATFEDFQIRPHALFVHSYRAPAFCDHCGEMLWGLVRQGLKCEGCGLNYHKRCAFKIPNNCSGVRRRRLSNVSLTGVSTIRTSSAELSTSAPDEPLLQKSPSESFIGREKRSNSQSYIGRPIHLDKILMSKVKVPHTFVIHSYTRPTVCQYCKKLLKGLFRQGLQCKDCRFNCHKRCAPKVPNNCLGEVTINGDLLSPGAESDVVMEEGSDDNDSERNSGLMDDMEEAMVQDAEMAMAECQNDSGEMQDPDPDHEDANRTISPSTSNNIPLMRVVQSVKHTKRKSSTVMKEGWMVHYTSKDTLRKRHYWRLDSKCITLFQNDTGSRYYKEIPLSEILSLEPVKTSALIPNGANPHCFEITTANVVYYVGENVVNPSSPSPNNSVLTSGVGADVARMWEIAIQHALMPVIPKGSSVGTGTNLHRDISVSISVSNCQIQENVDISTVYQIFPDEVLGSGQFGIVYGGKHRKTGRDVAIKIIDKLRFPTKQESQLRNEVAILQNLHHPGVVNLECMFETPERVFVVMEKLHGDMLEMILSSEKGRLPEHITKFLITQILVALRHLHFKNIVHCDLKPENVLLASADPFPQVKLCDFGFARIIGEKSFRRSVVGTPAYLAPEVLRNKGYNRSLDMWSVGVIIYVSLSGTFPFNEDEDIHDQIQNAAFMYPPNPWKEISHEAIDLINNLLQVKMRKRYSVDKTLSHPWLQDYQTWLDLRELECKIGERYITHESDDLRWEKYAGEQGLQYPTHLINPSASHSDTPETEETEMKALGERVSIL

[4] = target: Tyrosine-protein kinase BTK (Homo sapiens) (UniProt Q06187); conditions: 0.1 uM
Description: Inhibition of human full length BTK expressed in baculovirus assessed as substrate phosphorylation using fluorescence-labelled peptides as substrate at 0.1 uM after 90 mins by microfluidic peptide phosphorylation assay

[5] = target: Protein kinase C delta type (Homo sapiens) (UniProt Q05655); test: Inhibition of human truncated PKC delta expressed in baculovirus assessed as substrate phosphorylation using fluorescence-labelled peptides as substrate at 420 uM after 90 mins by microfluidic peptide phosphorylation assay
[6] = target: T2, Serine/threonine-protein kinase D2 (Homo sapiens) (UniProt Q9BZL6); test: Inhibition of human full length PKD2 expressed in baculovirus assessed as substrate phosphorylation using fluorescence-labelled peptides as substrate at 0.2 uM after 90 mins by microfluidic peptide phosphorylation assay
T2 sequence (whole entry): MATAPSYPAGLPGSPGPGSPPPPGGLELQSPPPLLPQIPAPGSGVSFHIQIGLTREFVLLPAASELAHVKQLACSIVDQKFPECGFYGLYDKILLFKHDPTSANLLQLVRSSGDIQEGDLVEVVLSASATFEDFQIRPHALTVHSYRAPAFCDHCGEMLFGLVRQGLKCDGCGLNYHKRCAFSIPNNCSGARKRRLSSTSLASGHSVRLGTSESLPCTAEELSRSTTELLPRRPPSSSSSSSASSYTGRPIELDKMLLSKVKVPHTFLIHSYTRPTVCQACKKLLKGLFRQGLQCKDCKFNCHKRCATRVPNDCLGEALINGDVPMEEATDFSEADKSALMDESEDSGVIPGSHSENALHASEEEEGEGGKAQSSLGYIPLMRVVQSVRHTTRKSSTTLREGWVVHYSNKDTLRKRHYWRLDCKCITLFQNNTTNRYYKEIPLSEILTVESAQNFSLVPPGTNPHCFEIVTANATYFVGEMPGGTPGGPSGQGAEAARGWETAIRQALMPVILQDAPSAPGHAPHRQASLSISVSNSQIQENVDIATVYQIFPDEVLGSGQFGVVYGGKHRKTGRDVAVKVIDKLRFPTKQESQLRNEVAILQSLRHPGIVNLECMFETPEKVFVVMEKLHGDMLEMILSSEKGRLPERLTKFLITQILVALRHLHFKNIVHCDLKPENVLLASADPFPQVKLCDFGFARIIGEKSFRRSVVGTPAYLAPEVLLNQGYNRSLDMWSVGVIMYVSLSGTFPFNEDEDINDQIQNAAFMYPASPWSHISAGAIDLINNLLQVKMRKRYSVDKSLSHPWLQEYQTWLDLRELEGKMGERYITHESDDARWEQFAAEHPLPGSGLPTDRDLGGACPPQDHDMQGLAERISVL

[7] = target: Mitogen-activated protein kinase 14 (Homo sapiens) (UniProt Q16539); test: Inhibition of human truncated p38 alpha expressed in Escherichia coli cell assessed as substrate phosphorylation using fluorescence-labelled peptides as substrate at 2 uM after 90 mins by microfluidic peptide phosphorylation assay
[8] = target: Fibroblast growth factor receptor 4 (Homo sapiens) (UniProt P22455); test: Inhibition of human FGFR4 catalytic domain expressed in baculovirus assessed as substrate phosphorylation using fluorescence-labelled peptides as substrate at 2 uM after 90 mins by microfluidic peptide phosphorylation assay
[9] = target: T3, Aurora kinase C (Homo sapiens) (UniProt Q9UQB9); test: Inhibition of human full length AurC expressed in baculovirus assessed as substrate phosphorylation using fluorescence-labelled peptides as substrate at 8 uM after 90 mins by microfluidic peptide phosphorylation assay
T3 sequence (whole entry): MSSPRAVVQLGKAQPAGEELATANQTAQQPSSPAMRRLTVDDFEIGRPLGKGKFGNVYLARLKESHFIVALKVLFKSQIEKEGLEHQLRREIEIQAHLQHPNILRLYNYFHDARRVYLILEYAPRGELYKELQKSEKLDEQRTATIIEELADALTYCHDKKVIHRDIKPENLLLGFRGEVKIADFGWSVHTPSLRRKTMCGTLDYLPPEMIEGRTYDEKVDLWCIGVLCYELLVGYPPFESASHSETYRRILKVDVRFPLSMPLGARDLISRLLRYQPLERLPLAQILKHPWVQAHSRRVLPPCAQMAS

Sequence of Fibroblast growth factor receptor 4 (Homo sapiens) (P22455 22-802 limits assumed): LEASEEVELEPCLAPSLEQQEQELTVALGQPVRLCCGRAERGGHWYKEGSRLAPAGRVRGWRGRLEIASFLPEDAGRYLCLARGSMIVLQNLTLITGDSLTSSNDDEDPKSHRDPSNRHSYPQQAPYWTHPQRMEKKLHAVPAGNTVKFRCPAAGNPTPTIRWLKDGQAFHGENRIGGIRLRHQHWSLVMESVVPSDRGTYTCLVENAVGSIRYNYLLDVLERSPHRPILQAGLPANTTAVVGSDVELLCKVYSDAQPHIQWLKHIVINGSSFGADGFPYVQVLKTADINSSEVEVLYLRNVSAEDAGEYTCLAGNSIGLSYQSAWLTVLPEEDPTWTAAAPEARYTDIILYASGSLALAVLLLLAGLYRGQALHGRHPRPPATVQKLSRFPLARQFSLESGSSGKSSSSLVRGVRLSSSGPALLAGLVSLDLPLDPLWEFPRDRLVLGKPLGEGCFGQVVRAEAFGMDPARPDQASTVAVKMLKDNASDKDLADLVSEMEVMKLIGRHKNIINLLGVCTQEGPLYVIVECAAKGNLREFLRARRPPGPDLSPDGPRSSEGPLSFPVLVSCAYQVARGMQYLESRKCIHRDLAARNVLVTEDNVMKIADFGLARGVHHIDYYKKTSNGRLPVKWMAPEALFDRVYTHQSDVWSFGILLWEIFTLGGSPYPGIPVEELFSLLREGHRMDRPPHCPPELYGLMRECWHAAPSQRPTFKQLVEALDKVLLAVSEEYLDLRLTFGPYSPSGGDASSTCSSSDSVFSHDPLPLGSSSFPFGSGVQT
Sequence of Mitogen-activated protein kinase 14 (Homo sapiens) (Q16539 whole entry, the tested form may be a part): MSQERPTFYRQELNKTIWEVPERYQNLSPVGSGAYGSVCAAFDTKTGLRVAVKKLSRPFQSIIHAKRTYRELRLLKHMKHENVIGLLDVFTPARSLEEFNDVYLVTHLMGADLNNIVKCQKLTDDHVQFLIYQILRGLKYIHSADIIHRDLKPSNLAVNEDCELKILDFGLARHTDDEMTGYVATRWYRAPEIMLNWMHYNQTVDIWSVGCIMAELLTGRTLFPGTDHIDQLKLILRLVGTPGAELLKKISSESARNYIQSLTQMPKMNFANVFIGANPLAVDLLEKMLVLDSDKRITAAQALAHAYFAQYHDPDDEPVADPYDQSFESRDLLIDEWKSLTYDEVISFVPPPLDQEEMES
Sequence of Tyrosine-protein kinase BTK (Homo sapiens) (Q06187 whole entry, the tested form may be a part): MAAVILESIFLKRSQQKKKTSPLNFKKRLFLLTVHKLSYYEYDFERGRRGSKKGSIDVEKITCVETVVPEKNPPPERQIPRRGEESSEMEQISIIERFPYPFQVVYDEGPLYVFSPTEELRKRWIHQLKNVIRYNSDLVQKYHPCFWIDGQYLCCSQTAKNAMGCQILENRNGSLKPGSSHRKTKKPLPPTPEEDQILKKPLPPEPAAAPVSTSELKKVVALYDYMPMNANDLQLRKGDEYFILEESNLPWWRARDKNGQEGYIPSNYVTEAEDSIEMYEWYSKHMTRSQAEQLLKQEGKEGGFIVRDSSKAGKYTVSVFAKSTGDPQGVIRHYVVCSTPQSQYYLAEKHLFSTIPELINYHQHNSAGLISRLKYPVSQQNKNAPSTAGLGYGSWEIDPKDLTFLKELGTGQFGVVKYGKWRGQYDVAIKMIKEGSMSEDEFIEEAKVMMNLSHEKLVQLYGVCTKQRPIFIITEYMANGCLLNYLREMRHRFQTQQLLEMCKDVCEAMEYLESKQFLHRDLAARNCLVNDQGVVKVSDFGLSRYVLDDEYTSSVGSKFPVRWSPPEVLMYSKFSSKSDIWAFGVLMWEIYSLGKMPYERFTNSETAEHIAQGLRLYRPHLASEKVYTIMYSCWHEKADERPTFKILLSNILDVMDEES
Sequence of Protein kinase C delta type (Homo sapiens) (Q05655 whole entry, looked up, the tested form may be a part): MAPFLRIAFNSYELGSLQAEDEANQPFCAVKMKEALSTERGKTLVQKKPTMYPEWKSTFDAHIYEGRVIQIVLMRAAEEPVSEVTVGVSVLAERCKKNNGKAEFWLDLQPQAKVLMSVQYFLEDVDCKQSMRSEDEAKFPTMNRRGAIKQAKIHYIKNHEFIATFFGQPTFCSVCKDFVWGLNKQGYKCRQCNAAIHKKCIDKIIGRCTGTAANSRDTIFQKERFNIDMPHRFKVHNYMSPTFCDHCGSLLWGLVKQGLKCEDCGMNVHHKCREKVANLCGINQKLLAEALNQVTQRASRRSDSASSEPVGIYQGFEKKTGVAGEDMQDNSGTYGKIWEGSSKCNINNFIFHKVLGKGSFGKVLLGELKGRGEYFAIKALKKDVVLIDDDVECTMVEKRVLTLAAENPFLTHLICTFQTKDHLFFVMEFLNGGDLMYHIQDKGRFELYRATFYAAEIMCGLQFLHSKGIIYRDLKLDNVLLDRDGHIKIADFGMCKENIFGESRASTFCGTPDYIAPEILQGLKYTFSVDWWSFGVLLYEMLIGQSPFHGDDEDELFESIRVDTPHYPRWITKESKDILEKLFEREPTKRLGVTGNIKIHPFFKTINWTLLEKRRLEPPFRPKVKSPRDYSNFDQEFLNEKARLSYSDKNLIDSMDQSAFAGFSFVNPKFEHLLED
Sequence of MAP kinase-activated protein kinase 2 (Homo sapiens) (P49137 whole entry, looked up, the tested form may be a part): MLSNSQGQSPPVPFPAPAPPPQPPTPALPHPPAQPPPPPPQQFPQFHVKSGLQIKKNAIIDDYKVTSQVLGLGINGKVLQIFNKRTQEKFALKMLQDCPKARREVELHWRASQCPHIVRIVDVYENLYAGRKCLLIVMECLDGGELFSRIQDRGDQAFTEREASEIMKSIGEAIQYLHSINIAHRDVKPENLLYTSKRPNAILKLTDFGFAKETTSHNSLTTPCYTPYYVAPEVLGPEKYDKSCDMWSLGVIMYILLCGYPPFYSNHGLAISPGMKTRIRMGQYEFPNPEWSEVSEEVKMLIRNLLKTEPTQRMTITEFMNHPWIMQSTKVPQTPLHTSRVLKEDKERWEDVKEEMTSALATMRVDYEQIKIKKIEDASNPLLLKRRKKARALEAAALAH
Sequence of Mitogen-activated protein kinase kinase kinase kinase 4 (Homo sapiens) (O95819 2-1239 limits assumed): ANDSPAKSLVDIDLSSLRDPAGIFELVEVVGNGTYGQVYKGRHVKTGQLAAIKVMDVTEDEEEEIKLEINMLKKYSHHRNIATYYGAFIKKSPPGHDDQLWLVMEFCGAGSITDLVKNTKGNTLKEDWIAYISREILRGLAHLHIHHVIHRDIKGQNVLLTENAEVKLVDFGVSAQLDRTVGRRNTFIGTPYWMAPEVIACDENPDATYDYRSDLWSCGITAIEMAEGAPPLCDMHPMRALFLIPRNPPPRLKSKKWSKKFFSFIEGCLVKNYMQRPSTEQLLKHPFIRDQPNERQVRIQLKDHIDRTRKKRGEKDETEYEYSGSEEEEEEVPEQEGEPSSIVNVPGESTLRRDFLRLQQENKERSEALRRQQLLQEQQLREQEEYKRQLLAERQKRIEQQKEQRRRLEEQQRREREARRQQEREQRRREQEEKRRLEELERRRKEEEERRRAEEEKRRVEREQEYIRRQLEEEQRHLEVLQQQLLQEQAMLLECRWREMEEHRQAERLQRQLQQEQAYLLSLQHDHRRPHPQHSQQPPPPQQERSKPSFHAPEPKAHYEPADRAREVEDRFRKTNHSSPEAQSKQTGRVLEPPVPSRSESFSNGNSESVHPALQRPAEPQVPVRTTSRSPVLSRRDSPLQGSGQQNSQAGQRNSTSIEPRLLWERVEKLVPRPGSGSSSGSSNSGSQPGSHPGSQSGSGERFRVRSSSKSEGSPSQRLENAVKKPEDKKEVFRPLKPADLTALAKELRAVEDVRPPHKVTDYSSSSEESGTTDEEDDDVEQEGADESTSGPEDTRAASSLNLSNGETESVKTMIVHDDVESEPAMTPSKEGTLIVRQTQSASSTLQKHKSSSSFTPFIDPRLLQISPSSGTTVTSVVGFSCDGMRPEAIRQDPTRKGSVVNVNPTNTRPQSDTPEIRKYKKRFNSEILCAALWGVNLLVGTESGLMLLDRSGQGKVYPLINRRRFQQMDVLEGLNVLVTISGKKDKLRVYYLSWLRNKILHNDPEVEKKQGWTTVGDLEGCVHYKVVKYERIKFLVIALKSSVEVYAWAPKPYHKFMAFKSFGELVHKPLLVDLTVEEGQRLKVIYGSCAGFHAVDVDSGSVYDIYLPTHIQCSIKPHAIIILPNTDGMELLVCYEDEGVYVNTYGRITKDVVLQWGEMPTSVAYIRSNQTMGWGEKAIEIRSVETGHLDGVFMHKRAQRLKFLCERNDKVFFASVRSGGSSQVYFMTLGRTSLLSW

NCC1CN(c2ncnc3[nH]c4cnccc4c23)CCO1 (centres undefined)
inhibition [1]: 19.5%

NCCc1ccc(-c2ncnc3[nH]cnc23)cc1
inhibition [2]: 39.5%

NC1(Cc2ccc(Cl)cc2)CCN(c2ncnc3[nH]ccc23)CC1
inhibition [3]: 32.5%

C[C@H](CN(C)C)Oc1nc(Nc2cc3cccc(Cl)c3cn2)cnc1C#N
inhibition [4]: 0%

c1nc(N2CCOCC2)c2nc[nH]c2n1
inhibition [5]: 78.5%

Clc1ccc(C2(c3ccc(-c4ncnc5[nH]cnc45)cc3)CCNCC2)cc1
inhibition [6]: 13%

NC1CCN(c2ncnc3[nH]ccc23)CC1
inhibition [7]: 2%
inhibition [8]: 0%

NCC1CCN(c2ncnc3[nH]ccc23)CC1
inhibition [9]: 34%
